# Values quoted from earlier work, collected in PubChem BioAssay AID1259409 (Chemical Carcinogenesis Research Information System (CCRIS), 2018).
# Several values for one entry are separate records, joined by “and”; a condition that tells them apart may be missing. Equal entries are not always repeated.
# System: rodent chemically induced tumor inhibition, incidence and multiplicity
# Experiment: CCRIS tumor inhibitor studies
compound,measurement,setting,value
NCCCC(N)(C(=O)O)C(F)F (centres undefined),"tumour outcome (control, treated, inhibition, significance)","Carcinogen: DIETHYLNITROSAMINE, 55-18-5, Dose [Inhibitor]: 0, 600 MG/KG BW BY INTRAPERITONEAL INJECTION ON DAYS 13, 14 AND 15 OF AGE THEN 4 G/KG DIET FROM 21 TO 161 DAYS OF AGE (S, Route [Inhibitor]: INTRAPERITONEAL, ORAL, Species: MOUSE, Strain/Sex: C3H/MALE, Target Tissue: Type of Lesion: LIVER: ADENOMA, Dose [Carcinogen]: 4 MG/KG IN TRICAPRYLIN ONCE ON DAY 15 OF AGE, Promoter: NONE USED","100%, 100%, 0%, not significant"
same,"tumour outcome (control, treated, inhibition, significance)","Carcinogen: DIETHYLNITROSAMINE, 55-18-5, Dose [Inhibitor]: 0, 1600 MG/KG DIET FOR DURATION OF STUDY BEGINNING 1 WK PRIOR TO CARCINOGEN TREATMENT (STUDY DURATION: 25 WK), Route [Inhibitor]: ORAL, Species: HAMSTER, Strain/Sex: SYRIAN/MALE, Target Tissue: Type of Lesion: LUNG: CARCINOMA, Dose [Carcinogen]: 17.8 MG/KG BW 2/WK FOR 20 WK, Promoter: NONE USED","50%, 41%, 18%, not significant"
same,"tumour outcome (control, treated, inhibition, significance)","Carcinogen: DIETHYLNITROSAMINE, 55-18-5, Dose [Inhibitor]: 0, 1600 MG/KG DIET FOR DURATION OF STUDY BEGINNING 1 WK PRIOR TO CARCINOGEN TREATMENT (STUDY DURATION: 25 WK), Route [Inhibitor]: ORAL, Species: HAMSTER, Strain/Sex: SYRIAN/MALE, Target Tissue: Type of Lesion: TRACHEA: PAPILLOMA, Dose [Carcinogen]: 17.8 MG/KG BW 2/WK FOR 20 WK, Promoter: NONE USED","95%, 83%, 13%, not significant"
same,"tumour outcome (control, treated, inhibition, significance)","Carcinogen: DIETHYLNITROSAMINE, 55-18-5, Dose [Inhibitor]: 0, 3200 MG/KG DIET FOR DURATION OF STUDY BEGINNING 1 WK PRIOR TO CARCINOGEN TREATMENT (STUDY DURATION: 25 WK), Route [Inhibitor]: ORAL, Species: HAMSTER, Strain/Sex: SYRIAN/MALE, Target Tissue: Type of Lesion: LUNG: CARCINOMA, Dose [Carcinogen]: 17.8 MG/KG BW 2/WK FOR 20 WK, Promoter: NONE USED","60%, 47%, 22%, not significant"
same,"tumour outcome (control, treated, inhibition, significance)","Carcinogen: DIETHYLNITROSAMINE, 55-18-5, Dose [Inhibitor]: 0, 3200 MG/KG DIET FOR DURATION OF STUDY BEGINNING 1 WK PRIOR TO CARCINOGEN TREATMENT (STUDY DURATION: 25 WK), Route [Inhibitor]: ORAL, Species: HAMSTER, Strain/Sex: SYRIAN/MALE, Target Tissue: Type of Lesion: TRACHEA: PAPILLOMA, Dose [Carcinogen]: 17.8 MG/KG BW 2/WK FOR 20 WK, Promoter: NONE USED","100%, 95%, 5%, not significant"
same,"tumour outcome (control, treated, inhibition, significance)","Carcinogen: METHYLAZOXYMETHANOL ACETATE, 592-62-1, Dose [Inhibitor]: 0, 0.1% IN DRINKING WATER FOR 25 WK BEGINNING 15 WK POST INITIAL CARCINOGEN DOSE (STUDY DURATION: 40 WK), Route [Inhibitor]: ORAL, Species: RAT, Strain/Sex: F344/MALE, Target Tissue: Type of Lesion: LARGE INTESTINE: ADENOCARCINOMA, Dose [Carcinogen]: 20 MG/KG BW 1/WK FOR 3 WK, Promoter: 1,2-DIMETHYLHYDRAZINE, 540-73-8","16/26 (62%), 11/28 (39%), 37%, not significant"
same,"tumour outcome (control, treated, inhibition, significance)","Carcinogen: METHYLAZOXYMETHANOL ACETATE, 592-62-1, Dose [Inhibitor]: 0, 0.1% IN DRINKING WATER FOR 25 WK BEGINNING 15 WK POST INITIAL CARCINOGEN DOSE (STUDY DURATION: 40 WK), Route [Inhibitor]: ORAL, Species: RAT, Strain/Sex: F344/MALE, Target Tissue: Type of Lesion: SMALL INTESTINE: ADENOCARCINOMA, Dose [Carcinogen]: 20 MG/KG BW 1/WK FOR 3 WK, Promoter: 1,2-DIMETHYLHYDRAZINE, 540-73-8","8/26 (31%), 8/25 (29%), 6%, not significant"
same,"tumour outcome (control, treated, inhibition, significance)","Carcinogen: N-BUTYL-N(4-HYDROXYBUTYL)NITROSAMINE, 3817-11-6, Dose [Inhibitor]: 0, 640 MG/KG DIET FOR 6 MO BEGINNING 1 WK PRIOR TO CARCINOGEN TREATMENT (STUDY DURATION: 6 MO), Route [Inhibitor]: ORAL, Species: MOUSE, Strain/Sex: BDF/MALE, Target Tissue: Type of Lesion: URINARY BLADDER: CARCINOMA, Dose [Carcinogen]: 7.5 MG IN 0.1 ML ETHANOL:WATER (20:80) 1/WK FOR 8 WK, Promoter: NONE USED","27/70 (39%), 21/72 (29%), 26%, not calculated"
same,"tumour outcome (control, treated, inhibition, significance)","Carcinogen: N-BUTYL-N-(4-HYDROXYBUTYL)NITROSAMINE, 3817-11-6, Dose [Inhibitor]: 0, 600 MG/KG DIET BEGINNING 1 WK PRIOR TO CARCINOGEN TREATMENT AND CONTINUING FOR DURATION OF STUDY (STUDY DURATION: 180, Route [Inhibitor]: ORAL, Species: MOUSE, Strain/Sex: BDF/MALE, Target Tissue: Type of Lesion: BLADDER: CARCINOMA, Dose [Carcinogen]: 7.5 MG IN 0.1 ML OF ETHANOL:WATER (20:80) 1/WK FOR 8 WK, Promoter: NONE USED","25/63 (40%), 17/72 (24%), 40%, p<0.05"
same,"tumour outcome (control, treated, inhibition, significance)","Carcinogen: N-BUTYL-N-(4-HYDROXYBUTYL)NITROSAMINE, 3817-11-6, Dose [Inhibitor]: 0, 1200 MG/KG DIET BEGINNING 1 WK PRIOR TO CARCINOGEN TREATMENT AND CONTINUING FOR DURATION OF STUDY (STUDY DURATION: 18, Route [Inhibitor]: ORAL, Species: MOUSE, Strain/Sex: BDF/MALE, Target Tissue: Type of Lesion: BLADDER: CARCINOMA, Dose [Carcinogen]: 7.5 MG IN 0.1 ML OF ETHANOL:WATER (20:80) 1/WK FOR 8 WK, Promoter: NONE USED","28/65 (43%), 14/65 (22%), 49%, p<0.01"
same,"tumour outcome (control, treated, inhibition, significance)","Carcinogen: N-BUTYL-N-(4-HYDROXYBUTYL)NITROSAMINE, 3817-11-6, Dose [Inhibitor]: 0, 1280 MG/KG DIET FOR 6 MO BEGINNING 1 WK PRIOR TO CARCINOGEN TREATMENT (STUDY DURATION: 6 MO), Route [Inhibitor]: ORAL, Species: MOUSE, Strain/Sex: BDF/MALE, Target Tissue: Type of Lesion: URINARY BLADDER: CARCINOMA, Dose [Carcinogen]: 7.5 MG IN 0.1 ML ETHANOL:WATER (20:80) 1/WK FOR 8 WK, Promoter: NONE USED","30/73 (41%), 15/73 (21%), 49%, p<0.01"
same,"tumour outcome (control, treated, inhibition, significance)","Carcinogen: N-BUTYL-N-(4-HYDROXYBUTYL)NITROSOAMINE, 3817-11-6, Dose [Inhibitor]: 0.2% IN DRINKING WATER BEGINNING POST CARCINOGEN DOSE AND CONTINUING FOR 40 WK FOLLOWED BY TAP WATER FOR DURATION OF STU, Route [Inhibitor]: ORAL, Species: RAT, Strain/Sex: F344/MALE, Target Tissue: Type of Lesion: URINARY BLADDER: CARCINOMA, Dose [Carcinogen]: 0.05% IN DRINKING WATER FOR 6 WK, Promoter: NONE USED","19/19 (100%), 16/18 (89%), 11%, not significant and 24/24 (100%), 23/25 (92%), 8%, not significant"
same,"tumour outcome (control, treated, inhibition, significance)","Carcinogen: N-BUTYL-N-(4-HYDROXYBUTYL)NITROSOAMINE, 3817-11-6, Dose [Inhibitor]: 0.2% IN DRINKING WATER BEGINNING POST CARCINOGEN DOSE AND CONTINUING FOR DURATION OF STUDY (STUDY DURATION: 75 WK), Route [Inhibitor]: ORAL, Species: RAT, Strain/Sex: F344/MALE, Target Tissue: Type of Lesion: URINARY BLADDER: CARCINOMA, Dose [Carcinogen]: 0.05% IN DRINKING WATER FOR 6 WK, Promoter: NONE USED","16/25 (64%), 11/24 (46%), 28%, not significant (at 40 wk post carcinogen dose) and 19/19 (100%), 12/19 (63%), 37%, p<0.017 (at 60 wk post carcinogen dose) and 24/24 (100%), 19/20 (95%), 5%, not significant (at 75 wk post carcinogen dose)"
same,"tumour outcome (control, treated, inhibition, significance)","Carcinogen: N-ETHYL-N-NITROSOUREA, 759-73-9, Dose [Inhibitor]: 0, 250 MG/KG DIET FOR DURATION OF STUDY BEGINNING POST CARCINOGEN DOSE (STUDY DURATION: 35 WK), Route [Inhibitor]: ORAL, Species: MOUSE, Strain/Sex: PIM/MALE, Target Tissue: Type of Lesion: LYMPHATIC SYSTEM: LYMPHOMA, Dose [Carcinogen]: 50 MG/KG BW ONCE, Promoter: NONE USED","21/40 (53%), 15/29 (52%), 2%, not significant"
